Test results from patent US20040043903A1, “2-Aryl-5-trifluoromethylpyridines” (priority 2000, published 2004).

Key:
Experiment in all cases: post-emergence herbicidal action, greenhouse experiments
[1] = tested on: BIDPI; type: in vivo, hairy beggarticks; conditions: for Harmful plant/action (post-emergence herbicidal action): scale 0 to 100
Text: (§1) The culture containers used were plastic pots with loamy sand with approximately 3.0% humus as substrate. The seeds of the test plants were sown separately for each species.
(§2) For the purposes of the post-emergence treatment, the test plants were first grown to a height of 3 to 15 cm, depending on the growth habit, and only then treated with the active ingredients which were suspended or emulsified in water. To this end, the test plants were either sown directly and grown on in the same containers, or else they were first grown separately as seedlings and then transplanted into the experimental containers a few days prior to treatment. […]
(§3) The plants were kept at temperatures of 10-25° C. or 20-35° C., depending on the species. The experimental period extended over 2 to 4 weeks. During this time, the plants were tended, and their response to the individual regimes were evaluated.
(§4) For the evaluation, a scale of 0 to 100 was used. 100 means no emergence of the plants, or complete destruction of at least the aerial parts, and 0 means no damage or normal course of growth.
(§5) The plants used in the greenhouse experiments consisted of the following species: […]

[2] = tested on: SETFA; type: in vivo, giant foxtail; conditions: for Harmful plant/action (post-emergence herbicidal action): scale 0 to 100
Text: as §1, §2, §3, §4, §5

[3] = tested on: BRAPL; type: in vivo, alexandergrass
Text: as §1
(§6) For the purposes of the post-emergence treatment, the test plants were first grown to a height of 3 to 15 cm, depending on the growth habit, and only then treated with the active ingredients which were suspended or emulsified in water. To this end, the test plants were either sown directly and grown on in the same containers, or else they were first grown separately as seedlings and then transplanted into the experimental containers a few days prior to treatment. The application rate for the post-emergence treatment was 31.3, 15.6, 7.8 and/or 3.9 g of a.s./ha.
as §3, §4, §5

[4] = tested on: CHEAL; type: in vivo, lambsquarters; conditions: for Harmful plant/action (post-emergence herbicidal action): scale 0 to 100
Text: as §1, §6, §3, §4, §5

[5] = tested on: ECHCG; type: in vivo, barnyardgrass
Text: as §1, §6, §3, §4, §5

[6] = 7.8 and 3.9 g of a.s./ha, compared with Comparative Example VC
[7] = 31.3 and 15.6 g of a.s./ha, compared with Comparative Example VA
[8] = application rate 15.6 g/ha a.s.
[9] = application rate 31.3 g/ha a.s.
[10] = 7.8 and 3.9 g of a.s./ha, compared with Comparative Example VB

CCc1nc2c(Cl)cc(F)c(-c3ncc(C(F)(F)F)c(C)c3Cl)c2o1 [ICe.3, 4-Chloro-7-[3-chloro-4-methyl-5-(trifluoromethyl)-2-pyridinyl]-2-ethyl-6-fluoro-1,3-benzoxazole]
action against the harmful plant compared with Comparative Example [1, 6]: considerably better action
post-emergence herbicidal action, BIDPI ([1]; application rate 3.9 g/ha a.s.): 100
post-emergence herbicidal action, BIDPI ([1]; application rate 7.8 g/ha a.s.): 100
action against the harmful plant compared with Comparative Example [2, 6]: considerably better action
post-emergence herbicidal action, SETFA ([2]; application rate 3.9 g/ha a.s.): 100
post-emergence herbicidal action, SETFA ([2]; application rate 7.8 g/ha a.s.): 100
action against the harmful plant compared with Comparative Example [3, 6]: considerably better action
post-emergence herbicidal action, BRAPL ([3]; application rate 3.9 g/ha a.s.): 80
post-emergence herbicidal action, BRAPL ([3]; application rate 7.8 g/ha a.s.): 90

CCc1nc2c(Cl)cc(F)c(-c3ncc(C(F)(F)F)cc3Cl)c2o1 [VC, reference compound]
post-emergence herbicidal action, BIDPI ([1]; application rate 3.9 g/ha a.s.): 50
post-emergence herbicidal action, BIDPI ([1]; application rate 7.8 g/ha a.s.): 55
post-emergence herbicidal action, SETFA ([2]; application rate 3.9 g/ha a.s.): 90
post-emergence herbicidal action, SETFA ([2]; application rate 7.8 g/ha a.s.): 95
post-emergence herbicidal action, BRAPL ([3]; application rate 3.9 g/ha a.s.): 40
post-emergence herbicidal action, BRAPL ([3]; application rate 7.8 g/ha a.s.): 55

C#CCN1C(=O)COc2cc(F)c(-c3ncc(C(F)(F)F)cc3Cl)cc21 [VD, reference compound]
post-emergence herbicidal action, BIDPI ([1]; application rate 1.9 g/ha a.s.): 50
post-emergence herbicidal action, BIDPI ([1]; application rate 3.9 g/ha a.s.): 55
post-emergence herbicidal action, SETFA ([2]; application rate 1.9 g/ha a.s.): 60
post-emergence herbicidal action, SETFA ([2]; application rate 3.9 g/ha a.s.): 90

COc1cc(-c2ncc(C(F)(F)F)c(C)c2Cl)c(F)cc1Cl [IAa.3, 2-(2-fluoro-4-chloro-5-methoxyphenyl-1-yl)-3-chloro-4-methyl-5-trifluoromethylpyridine]
action against the harmful plant compared with Comparative Example [4, 7]: considerably better action
Harmful plant/action (post-emergence herbicidal action) [4, 8]: 100
Harmful plant/action (post-emergence herbicidal action) [4, 9]: 100
action against the harmful plant compared with Comparative Example [1, 7]: considerably better action
Harmful plant/action (post-emergence herbicidal action) [1, 8]: 60
Harmful plant/action (post-emergence herbicidal action) [1, 9]: 60
action against the harmful plant compared with Comparative Example [2, 7]: considerably better action
Harmful plant/action (post-emergence herbicidal action) [2, 8]: 95
Harmful plant/action (post-emergence herbicidal action) [2, 9]: 100
action against the harmful plant compared with Comparative Example [5, 7]: considerably better action
Harmful plant/action (post-emergence herbicidal action) ([5]; application rate 15.6 g/ha a.s., scale 0 to 100): 90
Harmful plant/action (post-emergence herbicidal action) ([5]; application rate 31.3 g/ha a.s., scale 0 to 100 (100 = complete destruction, 0 = no damage)): 100

C#CCOc1cc(-c2ncc(C(F)(F)F)c(C)c2Cl)c(F)cc1Cl [IAa.10, 2-(2-Fluoro-4-chloro-5-propargyloxyphenyl)-3-chloro-4-methyl-5-trifluoromethylpyridine]
Harmful plant/action (post-emergence herbicidal action) ([4]; application rate 3.9 g/ha a.s.): 100
Harmful plant/action (post-emergence herbicidal action) ([4]; application rate 7.8 g/ha a.s.): 100
action against the harmful plant compared with Comparative Example [1, 10]: considerably better action
Harmful plant/action (post-emergence herbicidal action) ([1]; application rate 3.9 g/ha a.s.): 100
Harmful plant/action (post-emergence herbicidal action) ([1]; application rate 7.8 g/ha a.s.): 100
action against the harmful plant compared with Comparative Example [2, 10]: considerably better action
Harmful plant/action (post-emergence herbicidal action) ([2]; application rate 3.9 g/ha a.s.): 98
Harmful plant/action (post-emergence herbicidal action) ([2]; application rate 7.8 g/ha a.s.): 98
action against the harmful plant compared with Comparative Example [5, 10]: considerably better action
Harmful plant/action (post-emergence herbicidal action) ([5]; application rate 3.9 g/ha a.s., scale 0 to 100): 70
Harmful plant/action (post-emergence herbicidal action) ([5]; application rate 7.8 g/ha a.s., scale 0 to 100): 85
